Values quoted from earlier work, collected in patent US5792763A, “Serotonin 5-HT1F agonists” (Eli Lilly and Company, priority 1997, dated 1998).

Tests used:
[1] = background section
[2] = background section; remark: listed apart in the source
[3] = test system: cephalic vascular smooth muscle; conditions: background section
neurogenic inflammation = conditions: background section

## CNS(=O)(=O)Cc1ccc2[nH]cc(CCN(C)C)c2c1 [sumatriptan]
[1]
  crossing of the blood-brain barrier: does not cross the blood-brain barrier
[2]
  effectiveness in the treatment of migraine: effective in the treatment of migraine
[3]
  contraction of cephalic vascular smooth muscle: contract cephalic vascular smooth muscle
Neurogenic inflammation
  blockade of neurogenic inflammation: blocked
